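96-well plates; 48 h exposure; 5 concentrations. Endpoints by linear interpolation between flanking doses. Not reached: highest tested concentration assigned. TGI marks complete inhibition of growth.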
How the values were obtained:
Experiment in all cases: NCI-60 cell line screen, 48 h
[1] = system: 786-0 renal
[2] = system: A498 renal
[3] = system: A549 NSCLC
[4] = system: ACHN renal
[5] = system: BT-549 breast
[6] = system: CAKI-1 renal
[7] = system: CCRF-CEM leukemia
[8] = system: COLO 205 colon
[9] = system: DU-145 prostate
[10] = system: EKVX NSCLC
[11] = system: HCC-2998 colon
[12] = system: HCT-116 colon
[13] = system: HCT-15 colon
[14] = system: HL-60(TB) leukemia
[15] = system: HOP-62 NSCLC
[16] = system: HOP-92 NSCLC
[17] = system: HS 578T breast
[18] = system: IGROV1 ovarian
[19] = system: K-562 leukemia
[20] = system: KM12 colon
[21] = system: LOX IMVI melanoma
[22] = system: M14 melanoma
[23] = system: MCF7 breast
[24] = system: MDA-MB-231 breast
[25] = system: MDA-MB-435
[26] = system: MDA-N
[27] = system: MOLT-4 leukemia
[28] = system: NCI-H226 lung
[29] = system: NCI-H23 lung
[30] = system: NCI-H460 lung
[31] = system: NCI-H522 lung
[32] = system: NCI/ADR-RES ovarian
[33] = system: OVCAR-3 ovarian
[34] = system: OVCAR-4 ovarian
[35] = system: OVCAR-5 ovarian
[36] = system: OVCAR-8 ovarian
[37] = system: PC-3 prostate
[38] = system: RPMI-8226 leukemia
[39] = system: SF-268 CNS
[40] = system: SF-295 CNS
[41] = system: SF-539 CNS
[42] = system: SK-MEL-2 melanoma
[43] = system: SK-MEL-28 melanoma
[44] = system: SK-MEL-5 melanoma
[45] = system: SK-OV-3 ovarian
[46] = system: SN12C renal
[47] = system: SNB-19 CNS
[48] = system: SNB-75 CNS
[49] = system: SR leukemia
[50] = system: SW-620 colon
[51] = system: T-47D breast
[52] = system: TK-10 renal
[53] = system: U251 CNS
[54] = system: UACC-257 melanoma
[55] = system: UACC-62 melanoma
[56] = system: UO-31 renal
[57] = system: HT29 colon
[58] = system: MALME-3M melanoma
[59] = system: RXF 393 renal

Structure (SMILES): Cc1coc2c1CC1OC1(C)CCC1OC1(C)C2 (stereo not drawn)
- TGI [1]: > 100 µM
- TGI [2]: > 100 µM
- TGI [3]: > 100 µM
- TGI [4]: > 100 µM
- TGI [5]: > 100 µM
- TGI [6]: > 100 µM
- TGI [7]: > 100 µM
- TGI [8]: > 100 µM
- TGI [9]: > 100 µM
- TGI [10]: > 100 µM
- TGI [11]: > 100 µM
- TGI [12]: > 100 µM
- TGI [13]: > 100 µM
- TGI [14]: > 100 µM
- TGI [15]: > 100 µM
- TGI [16]: > 100 µM
- TGI [17]: > 100 µM
- TGI [18]: > 100 µM
- TGI [19]: > 100 µM
- TGI [20]: > 100 µM
- TGI [21]: > 100 µM
- TGI [22]: > 100 µM
- TGI [23]: > 100 µM
- TGI [24]: > 100 µM
- TGI [25]: > 100 µM
- TGI [26]: > 100 µM
- TGI [27]: > 100 µM
- TGI [28]: > 100 µM
- TGI [29]: > 100 µM
- TGI [30]: > 100 µM
- TGI [31]: > 100 µM
- TGI [32]: > 100 µM
- TGI [33]: > 100 µM
- TGI [34]: > 100 µM
- TGI [35]: > 100 µM
- TGI [36]: > 100 µM
- TGI [37]: > 100 µM
- TGI [38]: > 100 µM
- TGI [39]: > 100 µM
- TGI [40]: > 100 µM
- TGI [41]: > 100 µM
- TGI [42]: > 100 µM
- TGI [43]: > 100 µM
- TGI [44]: > 100 µM
- TGI [45]: > 100 µM
- TGI [46]: > 100 µM
- TGI [47]: > 100 µM
- TGI [48]: > 100 µM
- TGI [49]: > 100 µM
- TGI [50]: > 100 µM
- TGI [51]: > 100 µM
- TGI [52]: > 100 µM
- TGI [53]: > 100 µM
- TGI [54]: > 100 µM
- TGI [55]: > 100 µM
- TGI [56]: > 100 µM

Structure (SMILES): CC(C)(Cl)C(Br)CCC(CBr)=C(Cl)CCl (mixture of isomers)
- TGI [1]: 3.04 µM
- TGI [2]: > 5.56 µM
- TGI [3]: > 10 µM
- TGI [4]: > 8.98 µM
- TGI [5]: 4.14 µM
- TGI [6]: 5.67 µM
- TGI [7]: 0.568 µM
- TGI [8]: 1.11 µM
- TGI [9]: > 10 µM
- TGI [10]: > 10 µM
- TGI [11]: > 8.02 µM
- TGI [12]: 3.63 µM
- TGI [13]: 5.15 µM
- TGI [14]: 2.95 µM
- TGI [15]: > 6.85 µM
- TGI [16]: 3.5 µM
- TGI [17]: > 10 µM
- TGI [57]: 3.77 µM
- TGI [18]: 2.2 µM
- TGI [19]: 3.75 µM
- TGI [20]: 4.1 µM
- TGI [21]: 3.59 µM
- TGI [22]: 3.49 µM
- TGI [58]: 4.13 µM
- TGI [23]: 4.79 µM
- TGI [24]: 3.5 µM
- TGI [25]: 3.46 µM
- TGI [26]: 3.74 µM
- TGI [27]: 1.96 µM
- TGI [28]: > 2.46 µM
- TGI [29]: 5.42 µM
- TGI [30]: > 10 µM
- TGI [31]: 3.22 µM
- TGI [32]: 5.21 µM
- TGI [33]: > 5.48 µM
- TGI [34]: > 5.87 µM
- TGI [35]: > 8.21 µM
- TGI [36]: 3.14 µM
- TGI [37]: 5.56 µM
- TGI [38]: 4.39 µM
- TGI [59]: 4.97 µM
- TGI [39]: 5.67 µM
- TGI [40]: > 10 µM
- TGI [41]: 4.07 µM
- TGI [42]: 4.41 µM
- TGI [43]: 4.41 µM
- TGI [44]: 3.87 µM
- TGI [45]: > 8.72 µM
- TGI [46]: 0.971 µM
- TGI [47]: 9.73 µM
- TGI [48]: 7.93 µM
- TGI [49]: 2.55 µM
- TGI [50]: 5.6 µM
- TGI [51]: 5.33 µM
- TGI [52]: > 5.76 µM
- TGI [53]: 3.16 µM
- TGI [54]: 4.89 µM
- TGI [55]: 3.71 µM
- TGI [56]: 3.96 µM

Structure (SMILES): C[N+]1(C)CCOC(O)(c2ccccc2)C1 (stereo not drawn)
- TGI [1]: > 100 µM
- TGI [2]: > 100 µM
- TGI [3]: > 100 µM
- TGI [4]: > 100 µM
- TGI [5]: > 100 µM
- TGI [6]: > 100 µM
- TGI [7]: > 100 µM
- TGI [8]: > 100 µM
- TGI [9]: > 100 µM
- TGI [10]: > 100 µM
- TGI [12]: > 100 µM
- TGI [13]: > 100 µM
- TGI [14]: > 100 µM
- TGI [15]: > 100 µM
- TGI [16]: > 100 µM
- TGI [17]: > 100 µM
- TGI [57]: > 100 µM
- TGI [18]: > 100 µM
- TGI [19]: > 100 µM
- TGI [20]: > 100 µM
- TGI [21]: > 100 µM
- TGI [22]: > 100 µM
- TGI [58]: > 100 µM
- TGI [23]: > 100 µM
- TGI [24]: > 100 µM
- TGI [25]: > 100 µM
- TGI [26]: > 100 µM
- TGI [27]: > 100 µM
- TGI [28]: > 100 µM
- TGI [29]: > 100 µM
- TGI [30]: > 100 µM
- TGI [31]: > 100 µM
- TGI [32]: > 100 µM
- TGI [33]: > 100 µM
- TGI [34]: > 100 µM
- TGI [35]: > 100 µM
- TGI [36]: > 100 µM
- TGI [37]: > 100 µM
- TGI [38]: > 100 µM
- TGI [59]: > 100 µM
- TGI [39]: > 100 µM
- TGI [40]: > 100 µM
- TGI [41]: > 100 µM
- TGI [42]: > 100 µM
- TGI [43]: > 100 µM
- TGI [44]: > 100 µM
- TGI [45]: > 100 µM
- TGI [46]: > 100 µM
- TGI [47]: > 100 µM
- TGI [48]: > 100 µM
- TGI [49]: > 100 µM
- TGI [50]: > 100 µM
- TGI [51]: > 100 µM
- TGI [52]: > 100 µM
- TGI [53]: > 100 µM
- TGI [54]: > 100 µM
- TGI [55]: > 100 µM
- TGI [56]: > 100 µM

From PubChem BioAssay (NCI)
